Laboratory results reported in US12187706B2, “NLRP3 modulators” (INNATE TUMOR IMMUNITY, INC., priority 2019, dated 2025).

What was measured:
Format in all cases: cell-based
NLRP3 = target: T1, NLRP3 (Homo sapiens, UniProt Q96P20); test: Measurement of IL-1β production in PMA-differentiated THP-1 cells (NLRP3 hIL1B)
T1 construct: host or cells: PMA-differentiated THP-1 cells
Procedure, shortened: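 THP-1 cells differentiated with PMA, then replated in RPMI with 2% FBS and exposed to compound for 4 h (alternative: 2 h; hTRF protocol: 2 h at 37 °C, top concentration 10 μM). Supernatant IL-1β was quantified by ELISA or HTRF. Final DMSO 1%, with vehicle control.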

human TLR7 = target: T2, human TLR7 (Homo sapiens, UniProt Q9NYK1); test: In vitro human TLR7 reporter assay (HEK-Blue, NF-kB/AP1-inducible SEAP); details: HEK-Blue TLR7 cells, SEAP reporter; read-out: TLR7 Agonist EC50 value
T2 construct: host or cells: human HEK-Blue cells with NF-kB/AP1-inducible SEAP reporter
T2 sequence (Q9NYK1 27-1049): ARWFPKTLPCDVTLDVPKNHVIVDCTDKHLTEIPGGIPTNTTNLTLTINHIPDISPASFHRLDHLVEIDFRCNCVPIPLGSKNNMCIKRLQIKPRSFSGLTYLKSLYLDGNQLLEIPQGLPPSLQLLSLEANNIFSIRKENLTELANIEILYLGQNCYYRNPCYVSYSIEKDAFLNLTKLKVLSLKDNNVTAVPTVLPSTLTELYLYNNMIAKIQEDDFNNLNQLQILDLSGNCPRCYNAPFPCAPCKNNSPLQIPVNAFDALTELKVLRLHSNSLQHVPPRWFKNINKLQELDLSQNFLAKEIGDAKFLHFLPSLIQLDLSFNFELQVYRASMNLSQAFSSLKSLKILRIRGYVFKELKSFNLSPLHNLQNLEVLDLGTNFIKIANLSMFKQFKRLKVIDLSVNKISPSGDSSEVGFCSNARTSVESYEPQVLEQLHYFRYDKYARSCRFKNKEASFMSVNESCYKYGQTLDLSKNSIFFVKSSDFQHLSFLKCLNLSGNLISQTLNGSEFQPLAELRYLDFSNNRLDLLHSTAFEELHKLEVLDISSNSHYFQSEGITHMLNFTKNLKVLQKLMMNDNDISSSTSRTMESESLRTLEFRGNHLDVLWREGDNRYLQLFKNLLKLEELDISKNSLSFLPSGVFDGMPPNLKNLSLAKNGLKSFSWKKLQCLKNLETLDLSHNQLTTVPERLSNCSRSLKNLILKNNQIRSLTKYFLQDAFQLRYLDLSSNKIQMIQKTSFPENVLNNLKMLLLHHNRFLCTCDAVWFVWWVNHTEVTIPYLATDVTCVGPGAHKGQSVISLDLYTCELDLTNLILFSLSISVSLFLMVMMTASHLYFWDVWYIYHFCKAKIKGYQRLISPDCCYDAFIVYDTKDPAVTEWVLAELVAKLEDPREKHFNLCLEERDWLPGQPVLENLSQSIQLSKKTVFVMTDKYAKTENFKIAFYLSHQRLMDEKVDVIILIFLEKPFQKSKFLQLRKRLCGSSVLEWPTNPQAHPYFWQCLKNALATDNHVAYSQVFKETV
Description: (§1) In Vitro Human TLR7 and TLR8 Binding Reporter Assays Logarithmically-growing human HEK-Blue cells co-expressing a TLR7 or TLR8 gene and a NF-kB/AP1-inducible SEAP (secreted embryonic alkaline phosphatase; […] Cellular SEAP production is measured using an Envision plate reader instrument thirty minutes after adding freshly-made Quanti-Blue reagent (prepared by following manufacturer instructions; Invivogen, San Diego, CA) to the HEK-Blue TLR Nf-kB-SEAP cell reactions. All EC50 values (half-maximal effective concentration) are determined using proprietary data analysis software.

human TLR8 = target: T3, human TLR8 (Homo sapiens, UniProt Q9NR97); test: In vitro human TLR8 reporter assay (HEK-Blue, NF-kB/AP1-inducible SEAP); details: at 62.5 μM
T3 construct: host or cells: human HEK-Blue cells with NF-kB/AP1-inducible SEAP reporter
T3 sequence (Q9NR97 27-1041): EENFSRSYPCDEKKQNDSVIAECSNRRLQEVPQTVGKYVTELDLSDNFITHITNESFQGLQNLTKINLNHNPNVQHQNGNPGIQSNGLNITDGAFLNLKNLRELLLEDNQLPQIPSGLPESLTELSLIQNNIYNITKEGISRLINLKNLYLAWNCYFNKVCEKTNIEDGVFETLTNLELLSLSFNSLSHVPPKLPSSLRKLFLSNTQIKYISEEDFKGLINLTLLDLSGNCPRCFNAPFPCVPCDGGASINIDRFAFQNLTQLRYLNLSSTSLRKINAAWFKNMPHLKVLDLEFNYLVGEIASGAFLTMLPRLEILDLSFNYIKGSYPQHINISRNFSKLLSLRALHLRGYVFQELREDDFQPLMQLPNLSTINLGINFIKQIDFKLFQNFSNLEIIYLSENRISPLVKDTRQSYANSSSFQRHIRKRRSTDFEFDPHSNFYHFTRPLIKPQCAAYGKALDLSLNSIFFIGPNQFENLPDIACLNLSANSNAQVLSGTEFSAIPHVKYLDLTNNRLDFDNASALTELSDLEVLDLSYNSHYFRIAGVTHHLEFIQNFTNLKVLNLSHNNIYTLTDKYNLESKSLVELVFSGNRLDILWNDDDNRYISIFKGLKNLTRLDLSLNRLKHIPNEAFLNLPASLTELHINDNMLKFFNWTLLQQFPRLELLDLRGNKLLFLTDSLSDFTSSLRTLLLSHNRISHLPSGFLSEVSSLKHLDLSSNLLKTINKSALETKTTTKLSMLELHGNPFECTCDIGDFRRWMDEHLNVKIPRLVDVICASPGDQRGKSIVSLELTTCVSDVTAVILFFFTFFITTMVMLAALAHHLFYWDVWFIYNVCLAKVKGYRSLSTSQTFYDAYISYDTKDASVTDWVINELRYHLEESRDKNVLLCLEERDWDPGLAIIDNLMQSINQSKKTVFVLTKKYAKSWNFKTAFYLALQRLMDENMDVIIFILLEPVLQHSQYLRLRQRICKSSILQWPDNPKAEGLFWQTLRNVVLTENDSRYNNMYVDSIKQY
Description: as §1

T1 sequence (Q96P20 whole entry): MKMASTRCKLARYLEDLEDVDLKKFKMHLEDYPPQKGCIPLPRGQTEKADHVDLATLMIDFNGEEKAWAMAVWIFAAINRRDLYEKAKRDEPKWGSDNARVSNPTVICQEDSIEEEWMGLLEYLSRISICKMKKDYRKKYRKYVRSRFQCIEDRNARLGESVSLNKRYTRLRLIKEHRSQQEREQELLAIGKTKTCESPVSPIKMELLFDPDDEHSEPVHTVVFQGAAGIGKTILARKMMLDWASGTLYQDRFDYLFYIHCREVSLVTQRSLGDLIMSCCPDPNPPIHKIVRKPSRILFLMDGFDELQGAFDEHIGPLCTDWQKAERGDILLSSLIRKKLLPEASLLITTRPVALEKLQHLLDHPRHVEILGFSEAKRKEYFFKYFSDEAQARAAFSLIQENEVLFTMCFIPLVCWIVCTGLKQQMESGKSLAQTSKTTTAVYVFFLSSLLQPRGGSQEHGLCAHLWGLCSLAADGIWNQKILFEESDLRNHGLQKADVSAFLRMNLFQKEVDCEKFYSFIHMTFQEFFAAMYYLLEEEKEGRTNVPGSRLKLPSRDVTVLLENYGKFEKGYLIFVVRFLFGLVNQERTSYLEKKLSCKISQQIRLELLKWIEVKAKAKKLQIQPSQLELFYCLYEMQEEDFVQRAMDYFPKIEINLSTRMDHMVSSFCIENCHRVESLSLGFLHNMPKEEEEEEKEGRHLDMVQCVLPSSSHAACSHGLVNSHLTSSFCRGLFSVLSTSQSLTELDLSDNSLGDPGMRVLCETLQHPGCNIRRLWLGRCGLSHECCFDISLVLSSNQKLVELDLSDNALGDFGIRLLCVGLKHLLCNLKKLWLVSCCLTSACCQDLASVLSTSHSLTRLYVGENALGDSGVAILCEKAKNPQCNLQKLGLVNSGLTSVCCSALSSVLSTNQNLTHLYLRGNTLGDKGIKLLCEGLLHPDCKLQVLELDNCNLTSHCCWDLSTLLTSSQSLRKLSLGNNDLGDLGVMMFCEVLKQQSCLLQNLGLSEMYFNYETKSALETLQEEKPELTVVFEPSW

Compound | EC50 (NLRP3) | EC50 (human TLR7) | TLR8 activity (human TLR8)
COCC(COC)Nc1nc(N)nc2cc(-c3ccn[nH]3)ccc12 [Example 79] | 1200 nM | 20000 to 100000 nM | 
CCCCNc1nc(N)nc2cc(-c3ccn[nH]3)ccc12 [Example 92] | 200 nM | > 1000 nM | 
CCCC(CCO)Nc1nc(N)nc2cc(-c3ccn[nH]3)ccc12 (racemic) [Example 96, rac-3-((2-amino-7-(1H-pyrazol-5-yl)quinazolin-4-yl)amino)hexan-1-ol] | 690 nM | 1000 to 20000 nM | 
CCCC(CCO)Nc1nc(N)nc2cc(-c3ccn[nH]3)ccc12 (single isomer, unassigned) [Example 97, 3-((2-amino-7-(1H-pyrazol-5-yl)quinazolin-4-yl)amino)hexan-1-ol] | 710 nM | 1000 to 20000 nM | 
CCCCCNc1nc(N)nc2cc(-c3ccn[nH]3)ccc12 [Example 93] | 270 nM | 1000 to 20000 nM | 
CCCCC(CCO)Nc1nc(N)nc2cc(-c3ccn[nH]3)ccc12 (single isomer, unassigned) [Example 100, 3-((2-amino-7-(1H-pyrazol-5-yl)quinazolin-4-yl)amino)heptan-1-ol] | 450 nM | 1000 to 20000 nM | 
CCCCCNc1nc(N)nc2cc(-c3cc[nH]n3)cc(F)c12 [Example 125] | 710 nM | 1000 to 20000 nM | 
Cc1cc(-c2cc[nH]n2)cc2nc(N)nc(NCc3cncnc3)c12 [Example 136] | 1060 nM |  | 
Nc1nc(NCC2CCC(=O)N2)c2ccc(-c3ccn[nH]3)cc2n1 (single isomer, unassigned) [Example 5, 5-(((2-amino-7-(1H-pyrazol-5-yl)quinazolin-4-yl)amino)methyl)pyrrolidin-2-one] | 13000 nM |  | 
Nc1nc(N[C@H]2CCOC2)c2ccc(-c3ccn[nH]3)cc2n1 [Example 23, (S)-7-(1H-pyrazol-5-yl)-N4-(tetrahydrofuran-3-yl)quinazoline-2,4-diamine] | 670 nM |  | 
Nc1nc(NCCN2CCOCC2)c2ccc(-c3ccn[nH]3)cc2n1 [Example 157] | 1320 nM |  | 
CNc1nc(N)nc2cc(-c3ccn[nH]3)ccc12 [Example 84] | 280 nM |  | 
Nc1nc(NC2(CO)CC2)c2ccc(-c3ccn[nH]3)cc2n1 [Example 65] | 250 nM |  | 
Nc1nc(NCCCCO)c2ccc(-c3ccn[nH]3)cc2n1 [Example 85] | 230 nM |  | 
COc1cc(-c2cc[nH]n2)cc2nc(N)nc(NCCO)c12 [Example 131] | 5610 nM |  | 
Nc1nc(NCC2CC2(F)F)c2ccc(-c3cc[nH]n3)cc2n1 (single isomer, unassigned) [Example 198, N4-((2,2-Difluorocyclopropyl)methyl)-7-(1H-pyrazol-3-yl)quinazoline-2,4-diamine] | 70 nM |  | 
CCCCC(CCO)Nc1nc(N)nc2cc(-c3ccn[nH]3)ccc12 (racemic) [Example 99, rac-3-((2-amino-7-(1H-pyrazol-5-yl)quinazolin-4-yl)amino)heptan-1-ol] | 740 nM | 1000 to 20000 nM | 

Compound | EC50 (NLRP3) | EC50 (human TLR7) | TLR8 activity (human TLR8)
Nc1nc(NC2CC2)c2ccc(-c3cc[nH]n3)cc2n1 [Example 193] | 100 nM |  | 
COc1ncc(CNc2nc(N)nc3cc(-c4ccn[nH]4)ccc23)cn1 [Example 48] | 2920 nM |  | 
Cn1c(CCNc2nc(N)nc3cc(-c4ccn[nH]4)ccc23)nc2ccccc21 [Example 165] | 4120 nM |  | < 50%
CC(C)(O)C(O)CNc1nc(N)nc2cc(-c3ccn[nH]3)ccc12 (single isomer, unassigned) [Example 9, 1-((2-amino-7-(1H-pyrazol-5-yl)quinazolin-4-yl)amino)-3-methylbutane-2,3-diol] | 1310 nM |  | 
Nc1nc(N[C@H]2CCC[C@H](O)C2)c2c(F)cc(-c3cc[nH]n3)cc2n1 (racemic) [Example 17, trans-3-((2-amino-5-fluoro-7-(1H-pyrazol-3-yl)quinazolin-4-yl)amino)cyclohexan-1-ol] | 950 nM |  | 
Nc1nc(N[C@H]2CC[C@H](O)C2)c2ccc(-c3ccn[nH]3)cc2n1 [Example 47] | 550 nM |  | 
Nc1nc(NC(CO)c2cc[nH]n2)c2ccc(-c3ccn[nH]3)cc2n1 (stereo not shown) [Example 33] | 5390 nM |  | 
Nc1nc(N2CCCOCC2)c2c(F)cc(-c3cc[nH]n3)cc2n1 [Example 123] | 2860 nM |  | 
Nc1nc(Nc2cc[nH]n2)c2ccc(-c3ccn[nH]3)cc2n1 [Example 2, N4-(1H-pyrazol-3-yl)-7-(1H-pyrazol-5-yl)quinazoline-2,4-diamine] | 220 nM |  | 
Nc1nc(NCc2cc[nH]n2)c2c(Cl)cc(-c3cc[nH]n3)cc2n1 [Example 129] | 370 nM |  | 
Nc1nc(NC(CO)c2ncc[nH]2)c2ccc(-c3ccn[nH]3)cc2n1 (stereo not shown) [Example 34] | 7670 nM |  | 
Nc1nc(N[C@H]2CCC[C@@H](O)C2)c2ccc(-c3ccn[nH]3)cc2n1 (single isomer, unassigned) [Example 179, (cis)-3-((2-amino-7-(1H-pyrazol-5-yl)quinazolin-4-yl)amino)cyclohexan-1-ol] | 270 nM |  | 
Nc1nc(NCCc2ccccn2)c2ccc(-c3cc[nH]n3)cc2n1 [Example 119] | 490 nM |  | 
CCn1cc(CNc2nc(N)nc3cc(-c4ccn[nH]4)ccc23)cn1 [Example 168] | 1280 nM |  | 
CC(CCO)Nc1nc(N)nc2cc(-c3ccn[nH]3)ccc12 (single isomer, unassigned) [Example 200, 3-((2-amino-7-(1H-pyrazol-5-yl)quinazolin-4-yl)amino)butan-1-ol] | 860 nM |  | 
C[C@]1(O)CC[C@@H](Nc2nc(N)nc3cc(-c4ccn[nH]4)ccc23)CC1 [Example 90] | 830 nM |  | 
Nc1nc(N[C@@H]2CCOC2)c2c(F)cc(-c3cc[nH]n3)cc2n1 [Example 127] | 1220 nM |  | 
